Test results taken from ChEMBL document CHEMBL1130221, “Constrained corticotropin-releasing factor antagonists with i-(i + 3) Glu-Lys bridges” (1997).

Legend:
Rattus norvegicus [1] = species on record: Rattus norvegicus; experiment: In vitro relative potency versus [DPhe12,Nle21,38]-hCRF(12-41), using rat pituitary culture assay; format: functional
Rattus norvegicus [2] = species on record: Rattus norvegicus; experiment: The percent intrinsic activity, determined by level of antagonist induced secretion; format: functional

Row | SMILES | Relative potency (Rattus norvegicus [1]) | IA (Rattus norvegicus [2])
1 | CCCC[C@H](NC(=O)[C@H](CCC(=O)O)NC(=O)[C@H](CC(C)C)NC(=O)[C@@H](NC(=O)[C@H](CCC(=O)O)NC(=O)[C@H](CCCN=C(N)N)NC(=O)[C@H](CC(C)C)NC(=O)[C@@H]1CCCCNC(=O)CC[C@H](NC(=O)[C@H](CC(C)C)NC(=O)[C@@H](N)CC(=O)O)C(=O)N[C@H](Cc2ccccc2)C(=O)N[C@@H](Cc2c[nH]cn2)C(=O)N1)C(C)C)C(=O)N[C@@H](C)C(=O)N[C@@H](CCCN=C(N)N)C(=O)N[C@@H](C)C(=O)N[C@@H](CCC(=O)O)C(=O)N[C@@H](CCC(N)=O)C(=O)N[C@@H](CC(C)C)C(=O)N[C@@H](C)C(=O)N[C@@H](CCC(N)=O)C(=O)N[C@@H](CCC(N)=O)C(=O)N[C@@H](C)C(=O)N[C@@H](Cc1c[nH]cn1)C(=O)N[C@@H](CO)C(=O)N[C@@H](CC(N)=O)C(=O)N[C@@H](CCCN=C(N)N)C(=O)N[C@@H](CCCCN)C(=O)N[C@@H](CC(C)C)C(=O)N[C@@H](CCCC)C(=O)N[C@@H](CCC(=O)O)C(=O)N[C@H](C(=O)N[C@H](C(N)=O)[C@@H](C)CC)[C@@H](C)CC | 0.005 | 29%
2 | CCCC[C@H](NC(=O)[C@H](CCC(=O)O)NC(=O)[C@H](CC(C)C)NC(=O)[C@@H](NC(=O)[C@H](CCC(=O)O)NC(=O)[C@H](CCCN=C(N)N)NC(=O)[C@H](CC(C)C)NC(=O)[C@H](CC(C)C)NC(=O)[C@@H]1CCCCNC(=O)CC[C@H](NC(=O)[C@@H](N)CC(=O)O)C(=O)N[C@@H]([C@@H](C)O)C(=O)N[C@H](Cc2ccccc2)C(=O)N1)C(C)C)C(=O)N[C@@H](C)C(=O)N[C@@H](CCCN=C(N)N)C(=O)N[C@@H](C)C(=O)N[C@@H](CCC(=O)O)C(=O)N[C@@H](CCC(N)=O)C(=O)N[C@@H](CC(C)C)C(=O)N[C@@H](C)C(=O)N[C@@H](CCC(N)=O)C(=O)N[C@@H](CCC(N)=O)C(=O)N[C@@H](C)C(=O)N[C@@H](Cc1c[nH]cn1)C(=O)N[C@@H](CO)C(=O)N[C@@H](CC(N)=O)C(=O)N[C@@H](CCCN=C(N)N)C(=O)N[C@@H](CCCCN)C(=O)N[C@@H](CC(C)C)C(=O)N[C@@H](CCCC)C(=O)N[C@@H](CCC(=O)O)C(=O)N[C@H](C(=O)N[C@H](C(N)=O)[C@@H](C)CC)[C@@H](C)CC | 0.27 | 27%
